These results are taken from ChEMBL document CHEMBL3232981, “Isolation of 6-deoxytetrodotoxin from the pufferfish, Takifugu pardalis, and a comparison of the effects of the C-6 and C-11 hydroxy groups of tetrodotoxin on its activity” (J Nat Prod, 2014).

A short description of assay [1]: (§1) Inhibition of Nav in mouse Neuro-2a cells assessed as inhibition of ouabain and veratridine-induced cytotoxicity after 24 hrs by WST-8 assay. The format is cell-based. In general terms: Tetrazolium assays rely on reduction of a dye to a coloured formazan, in cell work by metabolically active cells.
Another assay relates to Neuro-2a. The description is as §1. The format is cell-based.

In general, EC50 refers to the concentration needed to bring the measured effect to its halfway point. As to `NC1=N[C@H](O)[C@H]2[C@H]3O[C@]4(O)O[C@@H]([C@@H](O)[C@@]2(N1)[C@@H]4O)[C@]3(O)CO` [TETRODOTOXIN], the EC50 in assay [1] was determined as 2.1 nM. Further, the inhibition entry with Neuro-2a was “Dose-dependent effect”.
Turning to `C[C@H]1[C@H]2O[C@@]3(O)O[C@@H]1[C@@H]1[C@@H](O)NC(=N)N[C@]1([C@@H]2O)[C@@H]3O`, the EC50 in assay [1] was 400 nM. Moreover, the inhibition result in the assay with Neuro-2a was “Dose-dependent effect”.
On the same counts, the results for `C[C@]1(O)[C@@H]2O[C@]3(O)O[C@H]1[C@@H](O)[C@@]1(NC(=N)N[C@H](O)[C@@H]21)[C@@H]3O` are 130 nM and “Dose-dependent effect”.
Take `N=C1N[C@H](O)[C@H]2[C@H]3O[C@]4(O)O[C@H]([C@@H]3CO)[C@@H](O)[C@@]2(N1)[C@@H]4O`: the EC50 in assay [1] came out at 6.5 nM. Besides, the inhibition result in the assay with Neuro-2a is “Dose-dependent effect”.
